According to US20220143222A1, “SUBCUTANEOUS AND INTRAMUSCULAR ADMINISTRATION OF PYRAZINE COMPOUNDS” (MediBeacon Inc., priority 2020, published 2022):
Like-named read-outs stand apart in the source and are kept apart here.

Assay: MB-102 pig plasma concentration after subcutaneous dosing
Assay type: in vivo
Settings: 3.2 mpk; for concentration at 15 min / concentration at 30 min / concentration at 45 min / concentration at 60 min / concentration at 75 min / concentration at 90 min / concentration at 105 min / concentration at 120 min / concentration at 135 min / concentration at 150 min / concentration at 165 min / concentration at 180 min / concentration at 195 min / concentration at 210 min / concentration at 225 min / concentration at 240 min / concentration at 255 min / concentration at 270 min / concentration at 285 min / concentration at 300 min / concentration at 315 min / concentration at 330 min / concentration at 345 min / concentration at 360 min: Yorkshire, pig, plasma, subcutaneous, 3.2 mg/kg, read-out: MB-102 Pig Plasma Conc.; for SUM (plasma conc. over time): 15-360 min
Description: Juvenile Yorkshire pigs weighing approximately 25 kg were anesthetized, their body temperature stabilized, and an IV port surgically placed. A region approximately half-way along the line between the hip and knee joint was selected as the injection site and prepared by cleaning the skin and removing any exposed hair by shaving the selected area at least twice. Similarly, the site where two Quantum Leap fluorescent sensors (disclosed in U.S. Pat. No. 10,548,521) were to be positioned (chest) was prepared by washing and shaving. After the skin was dry the sensors were attached with commercially available skin adhesive and background skin auto-fluorescence measurements were recorded. After about 20 minutes of background fluorescence collection the subject animal was dosed either intravenously (animal 48019) or subcutaneously (animals 52771, 53701 09802, or 1539) or intramuscularly (09801) with PBS-1× formulated MB-102 at 3.2 mg/kg. Injection of the appropriate volume took place over about a minute. […] At this point glomerular elimination of MB-102 by the kidneys led to a decrease of fluorescence signal over time. Blood samples (1.5 mL) were taken immediately prior to the introduction of MB-102 (0 minutes) and at 15 minute intervals throughout the procedure. Blood was collected in BD vacutainer K2EDTA tubes, spun to plasma and stored at −80° C. until analyzed. Subsequently, the processed plasma samples were thawed, diluted with PBS-1× and analyzed by HPLC or UPLC and the concentration of MB-102 determined using standard analytical techniques. Further details for each animal are provided in the examples that follow.
A sterile Mesoderm needle pack was obtained. The needle array featured five (5), 4 mm×30 gauge (0.30 mm dia) luer-hub needles arranged four (4) in a circular, symmetrical pattern (30 mm diameter) about a central needle and were attached via a distribution channel and a second luer-hub to a primary source syringe (3 mL in total deliverable volume). MB-102 API was formulated as 60 mg/mL of sodium salt in 1×PBS and placed in 5 mL serum cap vials. Immediately prior to dosing, the primary syringe was filled with a slight excess of the required amount of formulated MB-102 to achieve 3.2 mg/kg and the needle cap replaced until the subject animal and fluorescence monitor were ready for the experiment to begin and the injection initiated. Subject pig 52771 was dosed with 1.2 mL of MB-102 formulated in PBS-1× (3.2 mg/kg). […] Subject animal fluorescence was obtained during the entire course of the experiment (8 hrs) and blood samples were collected every 15 minutes, processed and stored at −80° C. Comparison of IV MB-102 plasma concentration versus time and subcutaneous MB-102 (both at 3.2 mg/kg dose) plasma concentration versus time are shown in FIG. 1.
Experimental animal Yorkshire pig, 53701, was subject to subcutaneous (subQ) administration of MB-102 as described in Example 8. […] Plasma sampling was conducted as described in Example 8 and the results (Table 1) are plotted in FIG. 1.
Experimental animal Yorkshire pig, 09802, was subject to subcutaneous (subQ) administration of MB-102 using a single needle in the same protocol as Example 8 but substituting a 2 mL syringe equipped with a single 4 mm×30 g needle. […] Plasma sampling was conducted as described in Example 8 and the results (Table 1) are plotted in FIG. 1.

A concentration at 15 min (pig 09802, SubQ) of 6670 ng/mL, a concentration at 30 min (pig 09802, SubQ) of 7530 ng/mL and a concentration at 45 min (pig 09802, SubQ) of 6850 ng/mL were found for Nc1nc(C(=O)N[C@H](CO)C(=O)O)c(N)nc1C(=O)N[C@H](CO)C(=O)O [MB-102, 3,6-diamino-2,5-bis{N-[(1R)-1-carboxy-2-hydroxyethyl]carbamoyl}pyrazine] in this work. For the same compound, the concentration at 60 min (pig 09802, SubQ) was 6540 ng/mL, the concentration at 75 min (pig 09802, SubQ) was 5490 ng/mL and the concentration at 90 min (pig 09802, SubQ) was 5260 ng/mL. It also gave a concentration at 105 min (pig 09802, SubQ) of 4810 ng/mL, a concentration at 120 min (pig 09802, SubQ) of 4410 ng/mL and a concentration at 135 min (pig 09802, SubQ) of 3900 ng/mL. The concentration at 150 min (pig 09802, SubQ) was 3710 ng/mL, the concentration at 165 min (pig 09802, SubQ) was 3500 ng/mL and the concentration at 180 min (pig 09802, SubQ) was 3070 ng/mL. It also gave a concentration at 195 min (pig 09802, SubQ) of 2720 ng/mL, a concentration at 210 min (pig 09802, SubQ) of 2500 ng/mL and a concentration at 225 min (pig 09802, SubQ) of 2200 ng/mL. The concentration at 240 min (pig 09802, SubQ) was 1990 ng/mL, the concentration at 255 min (pig 09802, SubQ) was 1730 ng/mL and the concentration at 270 min (pig 09802, SubQ) was 1600 ng/mL. It also gave a concentration at 285 min (pig 09802, SubQ) of 1430 ng/mL, a concentration at 300 min (pig 09802, SubQ) of 1300 ng/mL and a concentration at 315 min (pig 09802, SubQ) of 1180 ng/mL. The concentration at 330 min (pig 09802, SubQ) was 1030 ng/mL, the concentration at 345 min (pig 09802, SubQ) was 914 ng/mL and the concentration at 360 min (pig 09802, SubQ) was 829 ng/mL. The concentration at 15 min (pig 52771, SubQ) was 6130 ng/mL, the concentration at 30 min (pig 52771, SubQ) was 8510 ng/mL and the concentration at 45 min (pig 52771, SubQ) was 8790 ng/mL. It also gave a concentration at 60 min (pig 52771, SubQ) of 8840 ng/mL, a concentration at 75 min (pig 52771, SubQ) of 7840 ng/mL and a concentration at 90 min (pig 52771, SubQ) of 6920 ng/mL. For the same compound, the concentration at 105 min (pig 52771, SubQ) was 6070 ng/mL, the concentration at 120 min (pig 52771, SubQ) was 5560 ng/mL and the concentration at 135 min (pig 52771, SubQ) was 5000 ng/mL. For the same compound, the concentration at 150 min (pig 52771, SubQ) was 4400 ng/mL, the concentration at 165 min (pig 52771, SubQ) was 3950 ng/mL and the concentration at 180 min (pig 52771, SubQ) was 3480 ng/mL. The concentration at 195 min (pig 52771, SubQ) was 3190 ng/mL, the concentration at 210 min (pig 52771, SubQ) was 2830 ng/mL and the concentration at 225 min (pig 52771, SubQ) was 2500 ng/mL. It also gave a concentration at 240 min (pig 52771, SubQ) of 2240 ng/mL, a concentration at 255 min (pig 52771, SubQ) of 2000 ng/mL and a concentration at 270 min (pig 52771, SubQ) of 1760 ng/mL. The concentration at 285 min (pig 52771, SubQ) was 1630 ng/mL, the concentration at 330 min (pig 52771, SubQ) was 1210 ng/mL and the concentration at 345 min (pig 52771, SubQ) was 1140 ng/mL. It also gave a concentration at 360 min (pig 52771, SubQ) of 1000 ng/mL, a concentration at 15 min (pig 53701, SubQ) of 8110 ng/mL and a concentration at 30 min (pig 53701, SubQ) of 7410 ng/mL. It also gave a concentration at 45 min (pig 53701, SubQ) of 6620 ng/mL, a concentration at 60 min (pig 53701, SubQ) of 5940 ng/mL and a concentration at 75 min (pig 53701, SubQ) of 5260 ng/mL. For the same compound, the concentration at 90 min (pig 53701, SubQ) was 4720 ng/mL, the concentration at 105 min (pig 53701, SubQ) was 4230 ng/mL and the concentration at 120 min (pig 53701, SubQ) was 3670 ng/mL. It also gave a concentration at 135 min (pig 53701, SubQ) of 3250 ng/mL, a concentration at 150 min (pig 53701, SubQ) of 3000 ng/mL and a concentration at 165 min (pig 53701, SubQ) of 2640 ng/mL. The concentration at 180 min (pig 53701, SubQ) was 2390 ng/mL, the concentration at 195 min (pig 53701, SubQ) was 2170 ng/mL and the concentration at 210 min (pig 53701, SubQ) was 1940 ng/mL. The concentration at 225 min (pig 53701, SubQ) was 1670 ng/mL, the concentration at 240 min (pig 53701, SubQ) was 1510 ng/mL and the concentration at 255 min (pig 53701, SubQ) was 1350 ng/mL. The concentration at 270 min (pig 53701, SubQ) was 1220 ng/mL, the concentration at 285 min (pig 53701, SubQ) was 1090 ng/mL and the concentration at 300 min (pig 53701, SubQ) was 987 ng/mL. It also gave a concentration at 315 min (pig 53701, SubQ) of 867 ng/mL, a concentration at 330 min (pig 53701, SubQ) of 800 ng/mL and a concentration at 345 min (pig 53701, SubQ) of 704 ng/mL. For the same compound, the concentration at 360 min (pig 53701, SubQ) was 631 ng/mL, the “SUM (plasma conc. over time)” value (pig 09802, SubQ) was 1,210,924 ng/mL*min and the “SUM (plasma conc. over time)” value (pig 52771, SubQ) was 1,413,823 ng/mL*min. The “SUM (plasma conc. over time)” value (pig 53701, SubQ) was 1,077,956 ng/mL*min.
